Experimental findings from patent US10584128B2, “Bicyclic dihydropyrimidine-carboxamide derivatives as Rho-Kinase inhibitors” (CHIESI FARMACEUTICI S.p.A., priority 2016, dated 2020) are described below.

The target in one assay is Rho kinase 1 (Homo sapiens, UniProt Q13464). Nature of the assay: In vitro Rho kinase inhibitory activity assay (ADP-Glo kit, Myelin Basic Protein substrate). The settings on record: 10 μM ATP, 25° C., read-out: ROCK1 inhibitory activity (Ki, range of activity). Type of assay: biochemical. The essentials: (§1)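 Each kinase (ROCK1 or ROCK2) sat with compound for 30 min at 25 °C before 10 μM ATP started a 1 h reaction on 2.5 μM myelin basic protein (Tris pH 7.5, MgCl2, BSA, DTT, 1% DMSO). ADP formed was read by ADP-Glo luminescence. Dose-response IC50s were converted to Ki by Cheng-Prusoff.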
Chain of Rho kinase 1 (Q13464 whole entry): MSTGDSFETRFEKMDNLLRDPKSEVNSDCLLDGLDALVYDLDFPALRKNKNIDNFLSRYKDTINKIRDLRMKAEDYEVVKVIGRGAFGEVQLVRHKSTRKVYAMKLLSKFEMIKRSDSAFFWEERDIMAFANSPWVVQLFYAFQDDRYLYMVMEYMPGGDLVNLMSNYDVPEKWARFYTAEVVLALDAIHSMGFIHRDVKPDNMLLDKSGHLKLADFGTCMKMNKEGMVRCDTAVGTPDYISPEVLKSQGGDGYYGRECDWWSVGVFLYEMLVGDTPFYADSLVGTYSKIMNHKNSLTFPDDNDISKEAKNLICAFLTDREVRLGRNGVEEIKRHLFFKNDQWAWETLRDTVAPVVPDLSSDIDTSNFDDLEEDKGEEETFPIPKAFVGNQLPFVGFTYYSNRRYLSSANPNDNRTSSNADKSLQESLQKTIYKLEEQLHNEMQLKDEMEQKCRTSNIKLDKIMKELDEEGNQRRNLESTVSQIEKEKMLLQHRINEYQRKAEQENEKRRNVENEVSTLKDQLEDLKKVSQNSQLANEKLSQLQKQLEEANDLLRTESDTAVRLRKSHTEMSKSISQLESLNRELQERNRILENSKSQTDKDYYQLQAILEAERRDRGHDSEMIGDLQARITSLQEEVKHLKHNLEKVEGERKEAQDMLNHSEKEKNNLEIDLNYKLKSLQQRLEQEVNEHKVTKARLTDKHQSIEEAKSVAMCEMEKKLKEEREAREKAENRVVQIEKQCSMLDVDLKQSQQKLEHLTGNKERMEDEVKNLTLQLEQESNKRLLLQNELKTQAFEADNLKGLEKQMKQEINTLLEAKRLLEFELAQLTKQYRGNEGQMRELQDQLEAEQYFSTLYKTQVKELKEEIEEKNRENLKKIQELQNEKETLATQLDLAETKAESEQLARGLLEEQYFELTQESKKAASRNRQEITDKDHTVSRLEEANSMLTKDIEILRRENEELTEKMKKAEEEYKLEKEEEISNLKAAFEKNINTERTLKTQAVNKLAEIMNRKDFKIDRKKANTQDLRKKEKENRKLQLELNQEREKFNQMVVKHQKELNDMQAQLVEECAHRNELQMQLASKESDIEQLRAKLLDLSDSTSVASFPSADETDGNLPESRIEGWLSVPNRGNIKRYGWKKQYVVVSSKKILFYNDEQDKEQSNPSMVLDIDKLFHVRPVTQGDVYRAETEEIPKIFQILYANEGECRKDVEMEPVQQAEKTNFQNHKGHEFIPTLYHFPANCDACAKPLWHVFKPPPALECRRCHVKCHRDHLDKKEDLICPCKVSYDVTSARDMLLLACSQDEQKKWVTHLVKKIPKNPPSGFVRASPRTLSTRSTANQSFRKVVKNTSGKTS
On the technique in general: In ADP-Glo the light output rises with the ADP produced.

A further assay concerns the target Rho kinase 2 (Homo sapiens, UniProt O75116). Described as above. Type of assay: biochemical. Particulars: 10 μM ATP, 25° C., read-out: ROCK2 inhibitory activity (Ki, range of activity). The essentials:
as §1

pKi: −log10 of the molar value.

Chain of Rho kinase 2 (O75116 whole entry): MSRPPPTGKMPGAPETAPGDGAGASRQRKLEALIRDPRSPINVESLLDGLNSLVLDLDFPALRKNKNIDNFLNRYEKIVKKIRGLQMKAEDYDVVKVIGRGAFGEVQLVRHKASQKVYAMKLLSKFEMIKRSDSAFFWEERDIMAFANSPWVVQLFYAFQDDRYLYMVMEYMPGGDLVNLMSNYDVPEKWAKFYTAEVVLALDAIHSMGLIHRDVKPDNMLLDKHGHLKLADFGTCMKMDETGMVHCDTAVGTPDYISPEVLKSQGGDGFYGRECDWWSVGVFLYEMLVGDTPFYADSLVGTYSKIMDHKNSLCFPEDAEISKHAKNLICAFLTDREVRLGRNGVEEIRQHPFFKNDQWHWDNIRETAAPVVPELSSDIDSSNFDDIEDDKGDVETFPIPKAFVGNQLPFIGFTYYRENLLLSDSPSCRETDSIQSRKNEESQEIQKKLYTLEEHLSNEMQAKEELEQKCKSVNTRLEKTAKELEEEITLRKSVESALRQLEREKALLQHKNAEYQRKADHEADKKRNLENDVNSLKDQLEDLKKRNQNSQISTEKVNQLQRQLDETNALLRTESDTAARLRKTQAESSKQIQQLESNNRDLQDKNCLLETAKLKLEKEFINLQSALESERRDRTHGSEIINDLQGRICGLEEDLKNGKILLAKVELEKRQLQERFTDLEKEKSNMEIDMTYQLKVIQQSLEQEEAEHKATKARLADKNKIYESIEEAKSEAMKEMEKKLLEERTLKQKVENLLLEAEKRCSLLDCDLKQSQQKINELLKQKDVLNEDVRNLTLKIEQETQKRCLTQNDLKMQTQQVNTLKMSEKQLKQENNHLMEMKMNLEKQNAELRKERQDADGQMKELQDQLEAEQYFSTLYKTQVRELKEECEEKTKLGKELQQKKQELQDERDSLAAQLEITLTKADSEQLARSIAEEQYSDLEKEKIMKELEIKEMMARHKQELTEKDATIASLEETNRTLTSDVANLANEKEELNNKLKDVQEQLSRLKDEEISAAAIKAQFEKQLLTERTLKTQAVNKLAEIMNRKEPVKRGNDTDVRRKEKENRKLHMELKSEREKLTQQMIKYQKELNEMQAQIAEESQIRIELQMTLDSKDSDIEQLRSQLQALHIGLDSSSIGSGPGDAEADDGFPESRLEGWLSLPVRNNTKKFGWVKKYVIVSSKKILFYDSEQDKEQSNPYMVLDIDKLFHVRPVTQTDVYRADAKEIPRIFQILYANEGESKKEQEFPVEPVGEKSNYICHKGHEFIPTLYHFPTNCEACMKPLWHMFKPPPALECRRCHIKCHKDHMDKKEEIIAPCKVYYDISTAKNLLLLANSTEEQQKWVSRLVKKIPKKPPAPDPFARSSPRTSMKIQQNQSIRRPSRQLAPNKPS

Broadly, the pKi is −log10 of the Ki, conventionally taken in molar units. For the compound `CC1=C(C(=O)Nc2ccc3cnccc3c2)C(c2ccc(C(C)(C)C)cc2)n2nc(CO)cc2N1` (centres unmarked) [Example 54, 7-(4-(tert-butyl)phenyl)-2-(hydroxymethyl)-N-(isoquinolin-6-yl)-5-methyl-4,7-dihydropyrazolo[1,5-a]pyrimidine-6-carboxamide], the values for the pKi on Rho kinase 1 and at Rho kinase 2 were 6.30 to 7.30 and more than 7.30, respectively.

As to `CC1=C(C(=O)Nc2ccc3cnccc3c2)C(C2Cc3ccccc3C2)n2nc(CN(C)C)cc2N1` (single isomer, unassigned) [Example 124a, 7-(2,3-dihydro-1H-inden-2-yl)-2-((dimethylamino)methyl)-N-(isoquinolin-6-yl)-5-methyl-4,7-dihydropyrazolo[1,5-a]pyrimidine-6-carboxamide], the negative-log Ki (pKi) on Rho kinase 1 and on Rho kinase 2 was less than 6.30 each time.

As for `CC1=C(C(=O)Nc2ccc3cnccc3c2)C(c2ccc(C(F)(F)F)cc2)n2nc(CO)cc2N1` (single isomer, unassigned) [Example 43B, 2-(hydroxymethyl)-N-(isoquinolin-6-yl)-5-methyl-7-(4-(trifluoromethyl)phenyl)-4,7-dihydropyrazolo[1,5-a]pyrimidine-6-carboxamide], the negative logarithm of the Ki (pKi) on Rho kinase 1 and at Rho kinase 2 was more than 7.30 in each case.

`CC1=C(C(=O)Nc2ccc3cnccc3c2)C(c2ccc(C)cc2)n2nc(CO)cc2N1` (centres unmarked) [Example 66, 2-(hydroxymethyl)-N-(isoquinolin-6-yl)-5-methyl-7-(p-tolyl)-4,7-dihydropyrazolo[1,5-a]pyrimidine-6-carboxamide]: the pKi on Rho kinase 1 and at Rho kinase 2 was more than 7.30 in each case.

For the compound `CSc1cc2n(n1)C(c1ccc(C(F)(F)F)c(F)c1)C(C(=O)Nc1ccc3cnccc3c1)=C(C)N2` (centres unmarked) [Example 117, 7-(3-fluoro-4-(trifluoromethyl)phenyl)-N-(isoquinolin-6-yl)-5-methyl-2-(methylthio)-4,7-dihydropyrazolo[1,5-a]pyrimidine-6-carboxamide], the negative-log Ki (pKi) on Rho kinase 1 and on Rho kinase 2 was more than 7.30 throughout.

As to `CC1=C(C(=O)Nc2ccc3cnccc3c2)C(C2COc3ccccc3O2)n2nc(CO)cc2N1` (single isomer, unassigned) [Example 72A, 7-(2,3-dihydrobenzo[b][1,4]dioxin-2-yl)-2-(hydroxymethyl)-N-(isoquinolin-6-yl)-5-methyl-4,7-dihydropyrazolo[1,5-a]pyrimidine-6-carboxamide], the pKi at Rho kinase 1 and at Rho kinase 2 was more than 7.30 throughout.

`CC1=C(C(=O)Nc2ccc3cnccc3c2)C(c2ccc(C(F)(F)F)c(F)c2)n2nc(CN3CCOCC3)cc2N1` (centres unmarked) [Example 95, 7-(3-fluoro-4-(trifluoromethyl)phenyl)-N-(isoquinolin-6-yl)-5-methyl-2-(morpholinomethyl)-4,7-dihydropyrazolo[1,5-a]pyrimidine-6-carboxamide]: the pKi at Rho kinase 1 and at Rho kinase 2 was more than 7.30 each time.

In the case of `CC1=C(C(=O)Nc2ccc3cnccc3c2)C(c2ccc(C(F)(F)F)c(F)c2)n2nc(C(=O)NCCN3CCCCC3)cc2N1` (centres unmarked) [Example 77, 7-(3-fluoro-4-(trifluoromethyl)phenyl)-N6-(isoquinolin-6-yl)-5-methyl-N2-(2-(piperidin-1-yl)ethyl)-4,7-dihydropyrazolo[1,5-a]pyrimidine-2,6-dicarboxamide], the pKi on Rho kinase 1 and at Rho kinase 2 was more than 7.30 in each case.

Consider `CC1=C(C(=O)Nc2ccc3cnccc3c2)C(c2ccc(C(F)(F)F)c(F)c2)n2nc(C(=O)N3CCC(N(C)C)CC3)cc2N1` (centres unmarked) [Example 87, 2-(4-(dimethylamino)piperidine-1-carbonyl)-7-(3-fluoro-4-(trifluoromethyl)phenyl)-N-(isoquinolin-6-yl)-5-methyl-4,7-dihydropyrazolo[1,5-a]pyrimidine-6-carboxamide], for which the negative-log Ki (pKi) at Rho kinase 1 and at Rho kinase 2 was more than 7.30 each time.

Regarding `CC1=C(C(=O)Nc2ccc3cnccc3c2)C(c2ccc(C(F)(F)F)c(F)c2F)n2nc(CO)cc2N1` (centres unmarked) [Example 56, 7-(2,3-difluoro-4-(trifluoromethyl)phenyl)-2-(hydroxymethyl)-N-(isoquinolin-6-yl)-5-methyl-4,7-dihydropyrazolo[1,5-a]pyrimidine-6-carboxamide], the pKi on Rho kinase 1 and on Rho kinase 2 was more than 7.30 each time.

`CC1=C(C(=O)Nc2ccc3[nH]ncc3c2)C(c2ccc(C(F)(F)F)cc2F)n2nnnc2N1` (single isomer, unassigned) [Example 26B, 7-(2-fluoro-4-(trifluoromethyl)phenyl)-N-(1H-indazol-5-yl)-5-methyl-4,7-dihydrotetrazolo[1,5-a]pyrimidine-6-carboxamide]: the negative logarithm of the Ki (pKi) on Rho kinase 1 and on Rho kinase 2 was 6.30 to 7.30 in each case.

Turning to `CC1=C(C(=O)Nc2ccc3cnccc3c2)C(CCc2ccccc2)n2nc(CO)cc2N1` (centres unmarked) [Example 53, 2-(hydroxymethyl)-N-(isoquinolin-6-yl)-5-methyl-7-phenethyl-4,7-dihydropyrazolo[1,5-a]pyrimidine-6-carboxamide], the pKi at Rho kinase 1 and on Rho kinase 2 was more than 7.30 each time.

Turning to `CCOC(=O)c1cc2n(n1)C(c1ccc(C(F)(F)F)c(F)c1)C(C(=O)Nc1cc3cnccc3s1)=C(C)N2` (centres unmarked) [Example 41, Ethyl 7-(3-fluoro-4-(trifluoromethyl)phenyl)-5-methyl-6-(thieno[3,2-c]pyridin-2-ylcarbamoyl)-4,7-dihydropyrazolo[1,5-a]pyrimidine-2-carboxylate], the results for the negative logarithm of the Ki (pKi) at Rho kinase 1 and on Rho kinase 2 were less than 6.30 and 6.30 to 7.30, respectively.

In the case of `CC1=C(C(=O)Nc2ccc3[nH]ncc3c2)C(c2ccc(Cl)cc2)n2nnnc2N1` (single isomer, unassigned) [Example 24A, 7-(4-chlorophenyl)-N-(1H-indazol-5-yl)-5-methyl-4,7-dihydrotetrazolo[1,5-a]pyrimidine-6-carboxamide], the negative-log Ki (pKi) on Rho kinase 1 and at Rho kinase 2 was more than 7.30 each time.

Regarding `CC1=C(C(=O)Nc2ccc3cnccc3c2)C(C2Cc3ccccc3C2)n2nc(CN(C)C)cc2N1` (single isomer, unassigned) [Example 124b, 7-(2,3-dihydro-1H-inden-2-yl)-2-((dimethylamino)methyl)-N-(isoquinolin-6-yl)-5-methyl-4,7-dihydropyrazolo[1,5-a]pyrimidine-6-carboxamide], the pKi on Rho kinase 1 and on Rho kinase 2 was more than 7.30 each time.

Turning to `CC1=C(C(=O)Nc2ccc3cnccc3c2)C(c2ccc(C(F)(F)F)c(F)c2)n2nc(N)cc2N1` (single isomer, unassigned) [130B], the negative-log Ki (pKi) at Rho kinase 1 and at Rho kinase 2 was more than 7.30 throughout.

With `CC1=C(C(=O)Nc2ccc3[nH]ncc3c2)C(c2ccc(C(F)(F)F)cc2)n2nc(C#N)cc2N1` (centres unmarked) [Example 34, 2-cyano-N-(1H-indazol-5-yl)-5-methyl-7-(4-(trifluoromethyl)phenyl)-4,7-dihydropyrazolo[1,5-a]pyrimidine-6-carboxamide], the pKi on Rho kinase 1 and on Rho kinase 2 was more than 7.30 in each case.

As for `CC1=C(C(=O)Nc2ccc3cnccc3c2)C(c2ccc3ccsc3c2)n2nc(CO)cc2N1` (centres unmarked) [Example 46, 7-(benzo[b]thiophen-6-yl)-2-(hydroxymethyl)-N-(isoquinolin-6-yl)-5-methyl-4,7-dihydropyrazolo[1,5-a]pyrimidine-6-carboxamide], the pKi at Rho kinase 1 and at Rho kinase 2 was more than 7.30 each time.

Consider `CC1=C(C(=O)Nc2ccc3cnccc3c2)C(c2ccc(C(F)(F)F)c(F)c2)n2nc(CN3CCN(C)CC3)cc2N1` (single isomer, unassigned) [Example 96B, 7-(3-fluoro-4-(trifluoromethyl)phenyl)-N-(isoquinolin-6-yl)-5-methyl-2-((4-methylpiperazin-1-yl)methyl)-4,7-dihydropyrazolo[1,5-a]pyrimidine-6-carboxamide], for which the negative-log Ki (pKi) at Rho kinase 1 and on Rho kinase 2 was more than 7.30 in each case.

Consider `CC1=C(C(=O)Nc2ccc3cnccc3c2)C(c2ccc(C(F)(F)F)c(F)c2)n2nc(NC(=O)CN3CCCC3)cc2N1` (single isomer, unassigned) [132A], for which the negative-log Ki (pKi) on Rho kinase 1 and on Rho kinase 2 was more than 7.30 each time.

Consider `CC1=C(C(=O)Nc2ccc3cnccc3c2)C(c2ccc(C)c(F)c2F)n2nc(CN(C)C)cc2N1` (single isomer, unassigned) [Example 121b, 7-(2,3-difluoro-4-methylphenyl)-2-((dimethylamino)methyl)-N-(isoquinolin-6-yl)-5-methyl-4,7-dihydropyrazolo[1,5-a]pyrimidine-6-carboxamide], for which the negative-log Ki (pKi) on Rho kinase 1 and on Rho kinase 2 was more than 7.30 each time.

As for `CCOC(=O)c1cc2n(n1)C(c1ccc(F)cc1)C(C(=O)Nc1ccc3[nH]ncc3c1)=C(C)N2` (single isomer, unassigned) [Example 4A, ethyl 6-((1H-indazol-5-yl)carbamoyl)-7-(4-fluorophenyl)-5-methyl-4,7-dihydropyrazolo[1,5-a]pyrimidine-2-carboxylate], the pKi at Rho kinase 1 and at Rho kinase 2 was less than 6.30 throughout.

`CC1=C(C(=O)Nc2ccc3[nH]ncc3c2)C(c2ccc(F)cc2)n2nc(C(=O)N3CCNCC3)cc2N1` (centres unmarked) [Example 93, 7-(4-fluorophenyl)-N-(1H-indazol-5-yl)-5-methyl-2-(piperazine-1-carbonyl)-4,7-dihydropyrazolo[1,5-a]pyrimidine-6-carboxamide]: the negative logarithm of the Ki (pKi) at Rho kinase 1 and at Rho kinase 2 was more than 7.30 each time.

On to `CC1=C(C(=O)Nc2ccc3[nH]ncc3c2)C(c2ccc(Cl)cc2)n2nnnc2N1` (single isomer, unassigned) [Example 24B, 7-(4-chlorophenyl)-N-(1H-indazol-5-yl)-5-methyl-4,7-dihydrotetrazolo[1,5-a]pyrimidine-6-carboxamide], for which the pKi at Rho kinase 1 and at Rho kinase 2 was 6.30 to 7.30 each time.

On to `CC1=C(C(=O)Nc2ccc3cnccc3c2)C(c2ccc(C(F)(F)F)c(F)c2)n2nc(N)cc2N1` (single isomer, unassigned) [130A], for which the negative-log Ki (pKi) at Rho kinase 1 and on Rho kinase 2 was less than 6.30 in each case.
